Non-standard residues stand in square brackets, D forms with d. Residues, ends and D or L forms follow the SMILES beside them. d(hArg(Et2)) = CCN=C(NCC)NCCCC[C@@H](N)C(=O)O; hArg(Et2) = CCN=C(NCC)NCCCC[C@H](N)C(=O)O; dPhe(4-Cl) = N[C@H](Cc1ccc(Cl)cc1)C(=O)O; d2Nal = N[C@H](Cc1ccc2ccccc2c1)C(=O)O; dCit = NC(=O)NCCC[C@@H](N)C(=O)O; d3Pal = N[C@H](Cc1cccnc1)C(=O)O
Key:
Format in all cases: in vivo, human
[1] = test system: premature endogenous LH-surge; test: Examples 1 and 2 repeated using ganirelix instead of cetrorelix; conditions: 2.0 mg ganirelix instead of 2.0 mg cetrorelix
Description: (§1) Although this treatment is suitable for all types of IVF patients (e.g. within the age range 18 to 45 years, with or without displaying polycystic ovarian syndrome and with or without a regular cycle), the following selection criteria are set forth in the investigation: healthy female partners of infertile couples; age at the time of screening between 20 and 39 years; a regular menstrual cycle, and willing to give a written informed consent. However, no special precautions concerning body weight or body mass index are taken.
(§2) Prior to the first administration of recombinant FSH a blood sample is taken for hormone analysis (estradiol and LH) and a standard urinary hCG assay is performed to exclude pregnancy. Recombinant FSH treatment is started at day 2 or 3 of menses by a daily subcutaneous injection until the day of hCG administration. During the first 5 days of recombinant FSH treatment the daily dose is fixed to 150 IU. […]
A subcutaneous injection with urinary hCG (10,000 IU) is administered, when at least three follicles exceed a diameter of 17 mm as measured by ultrasound scan and subsequently oocyte retrieval is performed typically 30-36 hours later. […]

[2] = test system: women undergoing COH and subsequent IVF and ET; test: safety and tolerability in the clinical trial of COH with subsequent IVF and ET; conditions: daily subcutaneous 2.0 mg cetrorelix without recLH
Description: as §1, §2
(§3) A subcutaneous injection with urinary hCG (10,000 IU) is administered, when at least three follicles exceed a diameter of 17 mm as measured by ultrasound scan and subsequently oocyte retrieval is performed typically 30-36 hours later.

[3] = test system: premature endogenous LH-surge; test: open-label controlled clinical trial: premature endogenous LH-surge prevention in COH; conditions: daily subcutaneous 2.0 mg cetrorelix without recLH
Description: as §1, §2, §3

IVF-patients = test: implantation and pregnancy rates after IVF and embryo transfer following COH
Description: as §1
Prior to the first administration of recombinant FSH a blood sample is taken for hormone analysis (estradiol and LH) and a standard urinary hCG assay is performed to exclude pregnancy. Recombinant FSH treatment is started at day 2 or 3 of menses by a daily subcutaneous injection until the day of hCG administration. During the first 5 days of recombinant FSH treatment the daily dose is fixed to 150 IU. Starting at day 6, blood samples for hormone analysis are taken once every two days prior to drug administration and ultrasonographic monitoring of follicle growth is performed to adjust, if necessary, the daily injectable doses of recombinant FSH.
as §3
Oocytes are retrieved from the human females that have undergone COH as set forth in example 1. The oocytes are subsequently fertilized in vitro and two days later no more than two embryos are transferred to the uterus of the patient. […] Lower implantation and pregnancy rates are obtained in IVF-patients, in whom premature LH surges are prevented by a daily dose of 0.25 mg cetrorelix.

[4] = daily 2.0 mg cetrorelix without co-administered recLH

| SMILES | results (LH-rise prevention, tolerability, implantation and pregnancy rates) compared with examples 1 and 2 [1] | adverse effects [2] | tolerability [2] | efficacy in preventing a premature LH-rise ([3]; compared with 0.25 mg) | effectiveness in preventing a premature LH-rise in patients with bodyweight of more than 75 kg ([3]; IVF patients undergoing COH, bodyweight more than 75 kg) | implantation rates (rank among three treatment groups) (IVF-patients; daily 0.25 mg cetrorelix) | pregnancy rates (rank among three treatment groups) (IVF-patients; daily 0.25 mg cetrorelix) | implantation rates (rank among three treatment groups) (IVF-patients; [4]) | pregnancy rates (rank among three treatment groups) (IVF-patients; [4]) |
| --- | --- | --- | --- | --- | --- | --- | --- | --- | --- |
| CCN=C(NCC)NCCCC[C@H](NC(=O)[C@H](CC(C)C)NC(=O)[C@@H](CCCCNC(=NCC)NCC)NC(=O)[C@H](Cc1ccc(O)cc1)NC(=O)[C@H](CO)NC(=O)[C@@H](Cc1cccnc1)NC(=O)[C@@H](Cc1ccc(Cl)cc1)NC(=O)[C@@H](Cc1ccc2ccccc2c1)NC(C)=O)C(=O)N1CCC[C@H]1C(=O)N[C@H](C)C(N)=O [ganirelix] (Ac-[d2Nal][dPhe(4-Cl)][d3Pal]SY[d(hArg(Et2))]L[hArg(Et2)]P[dA]-NH2) | very similar | – | – | – | – | – | – | – | – |
| CC(=O)N[C@H](Cc1ccc2ccccc2c1)C(=O)N[C@H](Cc1ccc(Cl)cc1)C(=O)N[C@H](Cc1cccnc1)C(=O)N[C@@H](CO)C(=O)N[C@@H](Cc1ccc(O)cc1)C(=O)N[C@H](CCCNC(N)=O)C(=O)N[C@@H](CC(C)C)C(=O)N[C@@H](CCCNC(=N)N)C(=O)N1CCC[C@H]1C(=O)N[C@H](C)C(N)=O [cetrorelix] (Ac-[d2Nal][dPhe(4-Cl)][d3Pal]SY[dCit]LRP[dA]-NH2) | – | no apparent adverse effects | well-tolerated | more efficacious | especially apparent | Lower | Lower | lowest | lowest |
